Data set [1] deals with HCT116 parental (wild type) cells. The data set is described as follows: HCT116 cell proliferation assay (CTG), parental cells. It is filed as cell-based, human. The settings on record: Cell Titer-Glo. The method, then: (§1) Control samples were analyzed in parallel.
(§2) On Day 0, 150 HCT116 parental or HCT116 homozygous MTAP knockout cells were seeded in 96-well plates in McCoy's 5A medium containing 10% fetal bovine serum and pen/strep. And the cells were incubated overnight at 37° C. and 5% CO2.
(§3) On Day 1, cells were treated with 9-point serial dilution of compound, using a top concentration of 50 μM, 1:5 serial dilution steps and, a DMSO-only control. And cells were incubated for 6 days.
(§4) On Day 7, cell viability was measured using a CTG assay Kit (Cell Titer-Glo; Promega, catalog no.: G7573) in accordance with the manufacturer's instructions. Assays plates were read on a EnVision™ Multilabel Reader using the Ultra-Sensitive luminescence model. The data were analyzed by GraphPad Prism 5.0 software, and the dose-effect curve was obtained by fitting the data using nonlinear S-curve regression, from which the IC50 value was calculated.

The next data set addresses PRMT5/MEP50 (Homo sapiens (Human), UniProt O14744). The data set is described as follows: MTase-Glo methyl transferase assay (PRMT5 inhibition). It is filed as biochemical. Particulars: 50 nM PRMT5/MEP50, 25 μM SAM, 5 μM Histone H4 peptide (1-21), read-out: IC50 for PRMT5 inhibiting. The method, then:
The PRMT5 inhibitory activity of test compounds was determined using the MTase-Glo™ assay (Promega), which monitors the product (S-adenosyl homocysteine or SAH) of methyltransferase reactions. The PRMT5 MTase-Glo assays were conducted in a 384-well white ProxiPlate (PerkinElmer, catalog no.: 6008280) in a total volume of 12 μL. The PRMT5 enzymatic reaction (in 4 μL) contained 50 nM PRMT5/MEP50 (Reaction Biology Corp, catalog no.: HMT-22-148), 25 μM S-adenosyl methionine (SAM, Promega), 5 μM Histone H4 peptide (1-21) (BPS Bioscience, catalog no.: 52018-2) and five-fold serially diluted compounds in a reaction buffer of 50 mM Tris (pH 8.0), 50 mM NaCl, 0.01% Tween 20, 0.01% BSA, and 1 mM DTT. The test compounds were pre-incubated with PRMT5/MEP50 and Histone H4 peptide for 20 minutes at room temperature before the addition of SAM to initiate the PRMT5 reaction. The reaction was allowed to proceed for 1 hour at 37° C. and was terminated by 2 μL of 3× MTase-Glo™ Reagent (Promega) and 150 μM EPZ015666 (Selleck, catalog no.: 1616391-65-1). After a 30-minute incubation at room temperature, 6 μL of MTase-Glo™ Detection Solution (Promega) was added and the plate was incubated at room temperature for an additional 30 minutes. The light signal corresponding to the amount of SAH produced by the PRMT5 reaction was subsequently measured using an Envision multimode reader (PerkinElmer). IC50 and Ki values were obtained by analyzing dose-response curves using GraphPad Prism.

For data set [2], the system named is HCT116 homozygous MTAP knockout cells. The data set can be described thus: HCT116 cell proliferation assay (CTG), MTAP knockout cells. The settings on record: Cell Titer-Glo. It is filed as cell-based, human. The method, then: as §1, §2, §3, §4
(In general: ATP-based viability assays read luminescence as a measure of living cells.)

The target in data set [3] is hERG potassium ion channel (Homo sapiens (Human), UniProt Q12809). The data set is described as follows: hERG potassium ion channel inhibition assay (automated patch-clamp, CHO-hERG cells). It is filed as cell-based. Particulars: Qpatch, highest test concentration 40.00 μM. The method, then: Drug-hERG interaction was measured by automated patch-clamp methods, with cisapride as positive control.
1.1 CHO-hERG cells were cultured in 175 cm^2 culture bottle. After the cell density grew to 60-80%, the culture medium was removed, washed with 7 mL of phosphate buffered saline (PBS), and then digested with 3 mL Detachin.
1.2 After the digestion was complete, 7 mL culture solution was added for neutralization, and then centrifuged, the clear solution was sucked, and 5 mL culture solution was added for re-suspension to ensure the cell density was 2˜5×10^6/mL.
The process of single-cell high-impedance sealing and whole-cell pattern formation was all automatically completed by Qpatch instrument. After obtaining whole-cell recording mode, the cell was pinching at −80 millivolts. Before giving a 5-second +40 millivolt depolarization stimulus, a 50-millisecond pre-voltage of −50 millivolts was given first, and then repolarized to −50 millivolts for 5 seconds. Go back to −80 millivolts. This voltage stimulation was applied every 15 seconds, recorded for 2 minutes, then extracellular fluid was given and recorded for 5 minutes, and then the administration process began. The concentration of test compound was given from the lowest test concentration for 2.5 minutes per test concentration. After continuous administration of all concentrations, the positive control 3 μM cisapride was given. At least 2 cells were tested for each concentration (n≥2).
4.1 The compound mother liquor was diluted with DMSO, and 10 μL compound stock solution was added to 20 μL DMSO solution, which was continuously 3-fold diluted to 6 DMSO-concentrations.
4.2 4 μL of test compounds in 6 DMSO-concentrations were added to 396 μL extracellular solution and were 100-fold diluted to 6 intermediate concentrations. Then, 80 μL of test compounds in 6 intermediate concentrations were added to 320 μL extracellular solution and were 5-fold diluted to the final concentration to be tested.
4.3 The highest test concentration was 40.00 μM, and six test concentrations were 40.00, 13.33, 4.44, 1.48, 0.49, 0.16 μM, respectively.
4.5 Entire dilution process for test compound preparation was performed by Bravo instrument.
The experimental data were analyzed by GraphPad Prism 5.0 software.
On the technique in general: hERG is a cardiac potassium channel; its block is linked to QT prolongation.

Setting [4] is: Homo sapiens, HCT-116, 6 days treatment.

Chain of PRMT5/MEP50 (O14744 whole entry): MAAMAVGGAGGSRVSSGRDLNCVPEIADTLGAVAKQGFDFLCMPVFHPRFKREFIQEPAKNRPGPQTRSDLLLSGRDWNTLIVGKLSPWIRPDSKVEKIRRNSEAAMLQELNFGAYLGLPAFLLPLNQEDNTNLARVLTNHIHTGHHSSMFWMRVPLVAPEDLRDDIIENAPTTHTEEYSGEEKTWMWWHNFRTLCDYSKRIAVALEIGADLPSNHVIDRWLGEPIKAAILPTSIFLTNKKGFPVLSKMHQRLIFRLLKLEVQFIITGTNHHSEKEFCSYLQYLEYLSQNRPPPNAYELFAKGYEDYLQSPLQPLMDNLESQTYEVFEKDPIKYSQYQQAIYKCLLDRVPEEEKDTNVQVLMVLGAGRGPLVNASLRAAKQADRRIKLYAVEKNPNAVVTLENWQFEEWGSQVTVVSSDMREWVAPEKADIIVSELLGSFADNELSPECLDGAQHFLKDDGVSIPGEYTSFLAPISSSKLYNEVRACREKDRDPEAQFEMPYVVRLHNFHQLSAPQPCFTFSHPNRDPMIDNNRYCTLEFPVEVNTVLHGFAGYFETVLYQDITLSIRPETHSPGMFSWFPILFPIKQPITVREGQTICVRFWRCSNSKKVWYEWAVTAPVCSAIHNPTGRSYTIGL
Chain of PRMT5/MEP50 (Q9BQA1 whole entry partner): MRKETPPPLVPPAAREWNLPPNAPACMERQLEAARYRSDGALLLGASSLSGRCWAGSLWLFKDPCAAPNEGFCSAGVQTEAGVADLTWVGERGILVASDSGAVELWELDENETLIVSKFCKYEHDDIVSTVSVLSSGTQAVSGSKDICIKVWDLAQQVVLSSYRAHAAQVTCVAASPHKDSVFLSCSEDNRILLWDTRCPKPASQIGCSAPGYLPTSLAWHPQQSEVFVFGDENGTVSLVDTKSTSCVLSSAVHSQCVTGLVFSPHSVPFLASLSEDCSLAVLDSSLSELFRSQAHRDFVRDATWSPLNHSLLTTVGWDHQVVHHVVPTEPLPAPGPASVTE
Chain of hERG potassium ion channel (Q12809 whole entry): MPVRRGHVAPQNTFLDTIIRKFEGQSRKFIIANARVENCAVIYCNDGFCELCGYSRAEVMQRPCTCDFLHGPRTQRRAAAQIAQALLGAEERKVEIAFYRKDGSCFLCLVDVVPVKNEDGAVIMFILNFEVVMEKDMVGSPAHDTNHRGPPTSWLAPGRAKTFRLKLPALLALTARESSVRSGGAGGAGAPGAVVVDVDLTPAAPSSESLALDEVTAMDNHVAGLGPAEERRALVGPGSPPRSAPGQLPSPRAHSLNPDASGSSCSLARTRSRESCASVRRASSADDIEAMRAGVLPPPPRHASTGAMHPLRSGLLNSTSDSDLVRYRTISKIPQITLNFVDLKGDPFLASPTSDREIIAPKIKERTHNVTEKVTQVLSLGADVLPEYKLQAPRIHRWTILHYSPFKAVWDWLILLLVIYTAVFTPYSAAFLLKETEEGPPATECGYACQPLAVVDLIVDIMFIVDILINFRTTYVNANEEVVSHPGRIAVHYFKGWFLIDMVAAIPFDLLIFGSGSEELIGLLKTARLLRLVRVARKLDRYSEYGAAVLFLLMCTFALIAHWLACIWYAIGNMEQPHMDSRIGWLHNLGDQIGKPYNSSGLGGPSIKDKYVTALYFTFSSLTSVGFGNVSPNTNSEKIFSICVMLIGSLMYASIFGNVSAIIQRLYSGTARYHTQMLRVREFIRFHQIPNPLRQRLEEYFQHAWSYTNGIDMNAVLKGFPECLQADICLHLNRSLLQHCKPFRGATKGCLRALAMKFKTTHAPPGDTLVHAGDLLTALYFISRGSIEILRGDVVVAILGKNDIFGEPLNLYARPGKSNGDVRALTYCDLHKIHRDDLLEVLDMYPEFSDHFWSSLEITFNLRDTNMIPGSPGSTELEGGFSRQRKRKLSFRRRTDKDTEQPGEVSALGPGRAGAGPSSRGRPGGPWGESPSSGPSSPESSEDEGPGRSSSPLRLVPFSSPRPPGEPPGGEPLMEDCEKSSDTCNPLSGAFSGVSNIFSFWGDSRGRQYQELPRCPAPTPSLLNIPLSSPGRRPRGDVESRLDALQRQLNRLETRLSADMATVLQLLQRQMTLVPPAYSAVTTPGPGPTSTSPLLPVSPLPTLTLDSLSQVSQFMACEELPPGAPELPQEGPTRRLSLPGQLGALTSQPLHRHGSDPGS

As for `Cn1ncc(-c2ccc3c(c2)nc(N)c2cncn23)c1-c1c(F)cc2ccccc2c1C#N` [Compound 1], the IC50 in data set [1] (setting [4]) was 4360 nM; at PRMT5/MEP50, 45 nM; in data set [2] (setting [4]), 73 nM.

`Cn1ncc(-c2ccc3c(c2)nc(N)c2cncn23)c1-c1c(F)c(Cl)cc(OC2CC2)c1C#N` [Compound 2]: the results for the half-maximal inhibitory concentration (IC50) (in data set [1] (setting [4]); on PRMT5/MEP50; in data set [2] (setting [4])) were 5720 nM, 45 nM and 158 nM, respectively.

Turning to `C[C@H](c1ncccn1)N(Cc1ccc(C(F)(F)F)cn1)C(=O)c1ccc2nc(N)c3cncn3c2c1` [Compound 3], the values for the IC50 (in data set [1] (setting [4]); on PRMT5/MEP50; in data set [2] (setting [4])) were 16000 nM, 24 nM and 156 nM, respectively.

Take `C[C@H]1CC[C@H](c2ccc3c(c2)CCC(=O)N3)N(C(=O)c2ccc3nc(N)c4cncn4c3c2)C1` [Compound 4]: the figures for the IC50 (in data set [1] (setting [4]); at PRMT5/MEP50; in data set [2] (setting [4])) were 105 nM, 28 nM and 12 nM, respectively.

In the case of `C[C@H](c1ncccn1)N(Cc1ccc(C(F)(F)F)cn1)C(=O)c1ccc2nc(N)n3cncc3c2c1` [Compound 5], the results for the IC50 (in data set [1] (setting [4]); at PRMT5/MEP50; in data set [2] (setting [4])) were 1580 nM, 26 nM and 138 nM, respectively.

Take `C[C@H](c1ncccn1)N(Cc1ccc(C(F)(F)F)cn1)C(=O)c1cc2c(cc1F)nc(N)c1cncn12` [Compound 6]: the values for the concentration for half-maximal inhibition (IC50) (in data set [1] (setting [4]); on PRMT5/MEP50; in data set [2] (setting [4])) were 230 nM, 36 nM and 17 nM, respectively.

With `C[C@H](c1ncccn1)N(Cc1ccc(C(F)(F)F)cn1)C(=O)c1cc2c(cn1)nc(N)c1cncn12` [Compound 10], the IC50 is 495 nM in data set [1] (setting [4]), 54 nM at PRMT5/MEP50 and 33 nM in data set [2] (setting [4]).

`CN(C(=O)c1ccc2nc(N)c3cncn3c2c1)C1COc2cc(C(F)(F)F)ccc21` (stereo not shown) [Compound 11]: the IC50 in data set [1] (setting [4]) came out at 7680 nM; at PRMT5/MEP50, 51 nM; in data set [2] (setting [4]), 64 nM.

On to `CN(C(=O)c1cnc2nc(N)c3cncn3c2c1)[C@@H]1COc2cc(C(F)(F)F)ccc21` [Compound 13], for which the IC50 in data set [1] (setting [4]) came to 4570 nM; at PRMT5/MEP50, 40 nM; in data set [2] (setting [4]), 181 nM.

In the case of `CN(C(=O)c1ccc2nc(N)c3cncn3c2c1)C1COc2cc(C(F)(F)F)ccc21` (stereo not shown) [Compound 15], the IC50 was 5340 nM in data set [1] (6 days treatment), 5580 nM in data set [3], 16 nM on PRMT5/MEP50 and 37 nM in data set [2] (6 days treatment).

As to `CN(C(=O)c1ccc2nc(N)c3cncn3c2c1)C1COc2cc(C(F)(F)F)ccc21` (stereo not shown) [Compound 16], the IC50 at PRMT5/MEP50 worked out at 231 nM.

For `CN(C(=O)c1ccc2nc(N)c3cncn3c2c1)C1COc2cc(C(F)(F)F)ccc21` (stereo not shown) [Compound 18], the IC50 at PRMT5/MEP50 turned out to be 420 nM.

On to `CN(C(=O)c1cc2c(cn1)nc(N)c1cncn12)C1COc2cc(C(F)(F)F)ccc21` (stereo not shown) [Compound 20], for which the IC50 at PRMT5/MEP50 turned out to be 455 nM.

With `CN(C(=O)c1cc2c(cn1)nc(N)c1cncn12)C1COc2cc(C(F)(F)F)ccc21` (stereo not shown) [Compound 22], the IC50 on PRMT5/MEP50 turned out to be 1150 nM.

On to `CN(C(=O)c1ccc2nc(N)c3cncn3c2c1)C1COCc2cc(C(F)(F)F)ccc21` (stereo not shown) [Compound 23], for which the half-maximal inhibitory concentration (IC50) worked out at 5350 nM in data set [1] (setting [4]), 31 nM on PRMT5/MEP50 and 40 nM in data set [2] (setting [4]).

For the molecule `CN(C(=O)c1cc2c(cn1)nc(N)c1cncn12)C1CC(F)(F)c2cc(C(F)(F)F)ccc21` (stereo not shown) [Compound 25], at PRMT5/MEP50, the 50% inhibitory concentration (IC50) was 167 nM.

Turning to `CN(C(=O)c1cc2c(cn1)nc(N)c1cncn12)C1CC(F)(F)c2cc(C(F)(F)F)ccc21` (stereo not shown) [Compound 27], the IC50 on PRMT5/MEP50 stood at 1690 nM.

`CN(C(=O)c1ccc2nc(N)c3cncn3c2c1)C1COc2nc(C(F)(F)F)ccc21` (stereo not shown) [Compound 28]: the results for the IC50 (in data set [1] (setting [4]); on PRMT5/MEP50; in data set [2] (setting [4])) were over 50000 nM, 37 nM and 483 nM, respectively.

On to `CN(C(=O)c1cc2c(cn1)nc(N)c1cncn12)C1COc2nc(C(F)(F)F)ccc21` (stereo not shown) [Compound 29], for which the figures for the concentration for half-maximal inhibition (IC50) (in data set [1] (setting [4]); on PRMT5/MEP50; in data set [2] (setting [4])) were 21900 nM, 37 nM and 377 nM, respectively.

For `CN(C(=O)c1ccc2nc(N)c3cncn3c2c1)C1COc2cc(C(F)(F)F)cnc21` (stereo not shown) [Compound 30], the IC50 in data set [1] (setting [4]) is over 50000 nM; on PRMT5/MEP50, 89 nM; in data set [2] (setting [4]) it was 4020 nM.

In the case of `CN(C(=O)c1cc2c(cn1)nc(N)c1cncn12)C1COc2cc(C(F)(F)F)cnc21` (stereo not shown) [Compound 31], the IC50 in data set [1] (setting [4]) was 9580 nM; at PRMT5/MEP50, 96 nM; in data set [2] (setting [4]), 1500 nM.

As to `CN(C(=O)c1ccc2nc(N)c3cncn3c2c1)C1COc2cc(C(F)(F)F)ncc21` (stereo not shown) [Compound 32], the IC50 was 8090 nM in data set [1] (setting [4]), 25 nM on PRMT5/MEP50 and 286 nM in data set [2] (setting [4]).

`CN(C(=O)c1cc2c(cn1)nc(N)c1cncn12)C1COc2cc(C(F)(F)F)ncc21` (stereo not shown) [Compound 33]: the figures for the IC50 (in data set [1] (setting [4]); at PRMT5/MEP50; in data set [2] (setting [4])) were 18000 nM, 51 nM and 980 nM, respectively.

For `[2H]C([2H])([2H])N(C(=O)c1cc2c(cn1)nc(N)c1cncn12)C1COc2c1ccc(C(F)(F)F)c2F` (stereo not shown) [Compound 34], the IC50 in data set [1] (setting [4]) came out at 14000 nM; on PRMT5/MEP50, 70 nM; in data set [2] (setting [4]), 364 nM.

On to `[2H]C([2H])([2H])N(C(=O)c1cc2c(cn1)nc(N)c1cncn12)C1COc2cc(C(F)(F)F)c(F)cc21` (stereo not shown) [Compound 35], for which the figures for the IC50 (in data set [1] (setting [4]); on PRMT5/MEP50; in data set [2] (setting [4])) were 3210 nM, 87 nM and 70 nM, respectively.

On to `[2H]C([2H])([2H])N(C(=O)c1cc2c(cn1)nc(N)c1cncn12)C1COc2cc(C(F)(F)F)cc(F)c21` (stereo not shown) [Compound 36], for which the IC50 in data set [1] (setting [4]) was determined as 9620 nM; at PRMT5/MEP50 it was 53 nM; in data set [2] (setting [4]), 110 nM.

With `[2H]C([2H])([2H])N(C(=O)c1ccc2nc(N)c3cncn3c2c1)C1COc2cc(OC(F)F)ccc21` (stereo not shown) [Compound 37], the IC50 in data set [1] (setting [4]) came to 13800 nM; at PRMT5/MEP50, 29 nM; in data set [2] (setting [4]), 234 nM.

One may read the IC50 as the point on the concentration scale where inhibition reaches its midpoint.
